Assay results reported in US20230329994A1, “Surfactant Containing Formulation of Pseudo-Ceramides” (Symrise AG, priority 2020, published 2023).

Assays:
[1] = Solubility: visual appearance of shampoo formulations; assay type: physicochemical; settings: 0.1 in shampoo, surfactant approx. 14%; after preparation, after 3 days at 5° C. and 3 days at room temperature
Protocol: The solubility of the pseudoceramide CeramideBio in shampoo is evaluated in comparison to Ceramide 2 and Ceramide 3.
Shampoo Formulations: • Surfactant content: Approx. 14% 01
The shampoo formulations were prepared as follows: Phase A components were blended by gentle stirring; the process was stopped, when foaming starts.
The ceramides/pseudoceramide were predispersed in polyglyceryl-4-caprate and heated up to 90° C. The ceramides/pseudoceramide were melted and finely dispersed. Ucare Polymer JR-400 and water were added and the mixture was heated up to 90° C. again and stirred for 10 minutes.
Phases B, C and D were added to phase A one after the other by stirring. After that, the mixture was stirred slowly with a vane stirrer until the solution was homogeneous. At last Phase E was added by stirring with a vane stirrer. The pH value was adjusted to about 5.4 to 5.8.
The visual appearance of the shampoo formulations was evaluated after preparation, after 3 days storage at 5° C. and 3 day at room temperature.
The visual appearance of the shampoo formulations is depicted in FIG. 1. From left to the right: Sample CeramideBio (01_B), Ceramide 2 (02_B), Ceramide 3 (03_B).

[2] = Hair shine/luster evaluation (SAMBA system)
Protocol: The hair luster was measured with a shampoo formulation according to the present invention containing pseudoceramide CeramideBio (shampoo, 1.0%), a shampoo formulation containing Ceramide 2 (shampoo, 1%) and a Placebo (shampoo).
Principle: Hair luster test analyzes the light reflection from the hair surface and other interactions of the incident light with the hair. The measurement is made by using SAMBA system. The results are expressed by luster: parameter calculated from values of shine, chroma and diffused light to express the observer perception of the gloss effect. The higher is the value, the best impression of the observer regarding gloss effect of the hair. […]

[3] = Swelling test / hydrophobicity of hair fibers; settings: for diameter variation of the hair after 180 s: 1× bleached tresses
Protocol: The swelling of the hair was measured with a conditioning formulation according to the present invention containing pseudoceramide CeramideBio (leave-on, 0.5 and 0.05%), a conditioning formulation containing Ceramide 2 (leave-on, 0.5% and 0.05%) and a Placebo (leave-on).
Principle: Through diameter measurements it is possible to determine the level of swelling of a hair fiber over time when in contact with water. The swelling test evaluates the action of materials in forming a hydrophobic film on hair surface in order to prevent humidity from penetrating the hair, which in turn provokes the hair diameter variation. The laser measures the variation in the fiber diameter as it absorbs water over a pre-determined time. According to the fiber condition or the film covering its surface, the level of swelling may change. The more damaged the hair, the more hydrophilic it is, since most of the hair damages take the lipids, ceramides and other hydrophobic substances away from the hair, and, consequently, more swelling is noticed. Parameter measured: variation in hair diameter (%).
Swelling Test: • 3 Caucasian hair tresses (2.5 g, 25 cm, 1× bleached) were cleaned with a sodium laureth sulfate solution (SLES) (10%) for 1 minute; • Test samples (see above) were applied to each tress (0.25 ml of sample; massaging for 1 minute); • Tresses were left for drying at controlled environment (22±2° C.; 50±5% RH) overnight; • 45 fibers from each treatment were collected randomly and fixed in plastic tabs one by one; • Swelling test was performed during 180 s; • Variation on fiber's diameter was calculated; • Comparisons among treatments were performed using one-way variance analysis (ANOVA), followed by Tukey's honestly significant difference (HSD) test, at a 95% confidence interval.

CCCCCCCCCCCCCCCCCC(=O)N[C@@H](CO)[C@H](O)CCCCCCCCCCCCCCC [Ceramide 2]
recrystallization in shampoo formulation (visual appearance) [1]: showed recrystallization

CCCCCCCCCCCCCCCCCCCCCCCC(=O)N[C@@H](CO)[C@H](O)C(O)CCCCCCCCCCCCCC (stereo partly drawn) [Ceramide 3]
recrystallization in shampoo formulation (visual appearance) [1]: showed recrystallization

CCCCCCCCCCCCCCCCOC(=O)[C@@H]1C[C@@H](O)CN1C(=O)CCCCCCCCCCCCCCC [CeramideBio, Cetylhydroxyproline palmitamide]
recrystallization in shampoo formulation (visual appearance) [1]: without recrystallization | effect on hair luster ([2]; shampoo formulation containing 1.0%): able to increase hair luster | luster of the hair compared to shampoo formulation with Ceramide 2 ([2]; shampoo, 1.0%, applied 5 times, 3× bleached tresses): higher | diameter variation of the hair after 180 s compared to conditioning formulation with Ceramide 2 ([3]; leave-on conditioning formulation): smaller | diameter variation of the hair after 180 s ([3]; leave-on conditioning formulation, higher concentration (0.5%)): 15.90% | diameter variation of the hair after 180 s ([3]; leave-on conditioning formulation, lower concentration (0.05%)): 14.44% | hair fiber swelling / hydrophobicity versus non-treated hair, placebo and leave-on with 0.05% Ceramide 2 ([3]; leave-on formulation containing 0.05%): statistically decreasing its swelling
